Laboratory results as given in patent US4427698A, “Use of N,N-dimethyl-N'-p-tolyl-N'-dichlorofluoromethylthio-sulphamide for combating fungi which damage wood” (Bayer Aktiengesellschaft, priority 1978, dated 1984).
Values after ≈ are worked out from the molar mass of the structure shown.

Key:
[1] = Solubilities in % by weight; type: physicochemical
Source text: Solubilities in % by weight of N,N-dimethyl-N'-p-tolyl-N'-dichlorofluoromethylthio-sulphamide (A) compared with N,N-dimethyl-N'-phenyl-N'-dichlorofluoromethylthio-sulphamide (B) and N-dichlorofluoromethylthio-phthalimide (C).

Lentinus tigrinus = experiment: MIC determination in agar (beer wort and peptone); type: cell-based
Description: (§1) Determination of the minimum inhibitory concentration (MIC)
(§2) The active compound according to the invention is added, in concentrations of 2 mg/l to 5,000 mg/l, to an agar which is prepared from beer wort and peptone. After storing for 2 weeks at 28° C. and 60-70% relative atmospheric humidity the MIC is determined.

Coniophora cerebella = experiment: MIC determination in agar (beer wort and peptone); type: cell-based
Description: as §1, §2

Chaetomium globosum = experiment: MIC determination in agar (beer wort and peptone); type: cell-based
Description: as §1, §2

Ceratocystis pini = experiment: MIC determination in agar (beer wort and peptone); type: cell-based
Description: as §1, §2

Poria Vaporaria = experiment: MIC determination in agar (beer wort and peptone); type: cell-based
Description: as §1, §2

[2] = system: Ceratocystis coerulenceus; experiment: MIC determination in agar (beer wort and peptone); type: cell-based
Description: as §1, §2

[3] = cumulative and percutaneous toxic action; type: in vivo; details: in contrast to known active compounds, for example pentachlorophenol
Ceratocystis piceae = experiment: activity against wood-damaging fungi; type: cell-based
[4] = Peroral toxicity, single administration by probang to male rats; details: rat, in vivo, po, dissolved in acetone, Probit analysis, read-out: LD50 perorally
Description: The LD50 was calculated by means of Probit analysis (Fink et al, Methods of information in medicin 5, 19, 1966).

[5] = Cutaneous treatment of male rats; type: in vivo, rat; details: rat, in vivo, topical or ocular, read-out: LD50 cutaneously
male rats [6] = experiment: Cutaneous treatment of male rats; type: in vivo, rat; details: cutaneous treatment
Coriolus versicolor = experiment: activity against wood-damaging fungi; type: cell-based
rats = details: Caines, Toxycology and Applied Pharmacology 14, 515 (1969); cited from earlier work
male rats [7] = details: comparison substance pentachlorophenol; cited from earlier work
[8] = Benzine fraction, boiling point 140-190° C.
[9] = Mixture of aromatic hydrocarbons, boiling point 159-175° C.
[10] = 336 h, 2 weeks at 28° C., 60-70% relative humidity

Compound: Cc1ccc(N(SC(F)(Cl)Cl)S(=O)(=O)N(C)C)cc1 [A, N,N-dimethyl-N'-p-tolyl-N'-dichlorofluoromethylthio-sulphamide]
- Solubility [1, 8]: 2.5 % by weight
- Solubility ([1]; Ethyl acetate): 33 % by weight
- Solubility ([1]; Methanol): 5 % by weight
- Solubility [1, 9]: 20 % by weight
- Solubility ([1]; Xylene): 29 % by weight
- solubility (in words) ([1]; organic solvents): very readily soluble
- active against wood-damaging fungi (Lentinus tigrinus): active
- MIC (Lentinus tigrinus; [10]): 5 µg/mL (≈ 14.4 µM)
- active against wood-damaging fungi (Coniophora cerebella): active
- MIC (Coniophora cerebella; [10]): 10 µg/mL (≈ 28.8 µM)
- active against wood-damaging fungi (Chaetomium globosum): active
- MIC (Chaetomium globosum; [10]): 10 µg/mL (≈ 28.8 µM)
- active against wood-damaging fungi (Ceratocystis pini): active
- MIC (Ceratocystis pini; [10]): 20 µg/mL (≈ 57.6 µM)
- MIC (Poria Vaporaria; 336 h, Poria Vaporaria, 2 weeks at 28° C., 60-70% relative humidity): 2 µg/mL (≈ 5.76 µM)
- active against wood-damaging fungi (Poria Vaporaria; Poria vaporaria): active
- active against wood-damaging fungi [2]: active
- MIC [2, 10]: 20 µg/mL (≈ 57.6 µM)
- cumulative or percutaneous toxic action (in words) [3]: neither a cumulative nor a percutaneous toxic action
- active against wood-damaging fungi (Ceratocystis piceae): active
- LD50 [4]: > 2500 mg/kg
- LD50 [5]: > 500 mg/kg
- percutaneous toxicity compared with the other sulphamide (in words) (male rats [6]): just as low a toxicity
- active against wood-damaging fungi (Coriolus versicolor): active

Compound: CN(C)S(=O)(=O)N(SC(F)(Cl)Cl)c1ccccc1 [B, N,N-dimethyl-N'-phenyl-N'-dichlorofluoromethylthio-sulphamide]
- Solubility [1, 8]: 1.2 % by weight
- Solubility ([1]; Ethyl acetate): 11 % by weight
- Solubility ([1]; Methanol): 1.5 % by weight
- Solubility [1, 9]: 7.5 % by weight
- Solubility ([1]; Xylene): 6.5 % by weight
- solubility (in words) ([1]; formulating agents customary for wood protection agents): very poor solubility

Compound: Oc1c(Cl)c(Cl)c(Cl)c(Cl)c1Cl [Pentachlorophenol]
- LD50 perorally (rats): 160 mg/kg of body weight
- LD50 cutaneously (male rats [7]): 325 mg/kg
- percutaneous toxic action (in words) (male rats [7]): has a toxic action
